Results published in ChEMBL document CHEMBL1201862, “PubChem BioAssay data set” (2004).
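A five-concentration, 48-hour dose response in 96-well plates underlies each endpoint, interpolated linearly between surrounding concentrations. Here, GI50 denotes the concentration required for 50% inhibition of growth.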 Active and inactive are the calls of the source. Cut-off read from the data, not from the text of the source: active = GI50 up to about 1.1 µM and inactive = higher.

Assays:
Experiment in all cases: NCI anticancer screen, dose series, 48 h
786-0 = system: 786-0
A498 = system: A498
BT-549 = system: BT-549
CCRF-CEM = system: CCRF-CEM
DU-145 = system: DU-145
HCT-116 = system: HCT-116
HOP-92 = system: HOP-92
K562 = system: K562
NCI-H226 = system: NCI-H226
NCI-H460 = system: NCI-H460
NCI/ADR-RES = system: NCI/ADR-RES
OVCAR-5 = system: OVCAR-5
PC-3 = system: PC-3
SK-MEL-2 = system: SK-MEL-2
SK-OV-3 = system: SK-OV-3
T47D = system: T47D
TK-10 = system: TK-10
U-251 = system: U-251
UO-31 = system: UO-31
Malme-3M = system: Malme-3M

SMILES	GI50 (786-0)	GI50 (A498)	GI50 (BT-549)	GI50 (CCRF-CEM)	GI50 (DU-145)	GI50 (HCT-116)	GI50 (HOP-92)	GI50 (K562)	GI50 (NCI-H226)	GI50 (NCI-H460)	GI50 (NCI/ADR-RES)	GI50 (OVCAR-5)	GI50 (PC-3)	GI50 (SK-MEL-2)	GI50 (SK-OV-3)	GI50 (T47D)	GI50 (TK-10)	GI50 (U-251)	GI50 (UO-31)	GI50 (Malme-3M)
COc1ccc(/C=N\N2CC(=O)N3C4C=CC(CC4)N3C2=O)cc1 (centres undefined)	> 100 µM (inactive)	> 100 µM (inactive)	> 100 µM (inactive)	> 100 µM (inactive)	> 100 µM (inactive)	> 100 µM (inactive)	> 100 µM (inactive)	> 100 µM (inactive)	> 100 µM (inactive)	> 100 µM (inactive)	81.8 µM (inactive)	> 100 µM (inactive)	> 100 µM (inactive)	> 100 µM (inactive)	> 100 µM (inactive)	85.7 µM (inactive)	> 100 µM (inactive)	> 100 µM (inactive)	> 100 µM (inactive)	
O=C1/C(=C/c2ccccc2[N+](=O)[O-])N=C(c2ccccc2)N1C1Nc2cc3c(cc2S1)NC(N1C(=O)/C(=C/c2ccccc2[N+](=O)[O-])N=C1c1ccccc1)S3 (centres undefined)	22.3 µM (inactive)	27.5 µM (inactive)	40.4 µM (inactive)		30.8 µM (inactive)	16 µM (inactive)	> 100 µM (inactive)	37.1 µM (inactive)	31.5 µM (inactive)	5.45 µM (inactive)	25.3 µM (inactive)	> 100 µM (inactive)	32.9 µM (inactive)	36.8 µM (inactive)		25.1 µM (inactive)	72.4 µM (inactive)	31 µM (inactive)	24.1 µM (inactive)	
O=C1/C(=C/c2cccs2)N=C(c2ccccc2)N1c1nc2ccccc2s1	41.3 µM (inactive)	> 100 µM (inactive)	53.3 µM (inactive)	0.162 µM (active)	67.3 µM (inactive)	38.4 µM (inactive)	26.5 µM (inactive)	47.5 µM (inactive)	> 100 µM (inactive)	68.5 µM (inactive)	64.4 µM (inactive)	> 100 µM (inactive)	> 100 µM (inactive)	> 100 µM (inactive)		57.3 µM (inactive)	> 100 µM (inactive)	95.1 µM (inactive)	24.2 µM (inactive)	
Cc1ccc(-c2[nH]c(=O)n(C3OC(CO)C(O)C(O)C3O)c(=O)c2C#N)cc1 (centres undefined)	> 100 µM (inactive)	> 100 µM (inactive)	> 100 µM (inactive)	> 100 µM (inactive)	> 100 µM (inactive)	> 100 µM (inactive)	> 100 µM (inactive)	> 100 µM (inactive)	> 100 µM (inactive)	> 100 µM (inactive)	> 100 µM (inactive)	> 100 µM (inactive)	> 100 µM (inactive)	> 100 µM (inactive)	> 100 µM (inactive)	> 100 µM (inactive)	> 100 µM (inactive)	> 100 µM (inactive)	> 100 µM (inactive)	
CNC(Cc1ccccc1)c1cccc(OC)c1O (centres undefined)	> 100 µM (inactive)	> 100 µM (inactive)	> 100 µM (inactive)		> 100 µM (inactive)	> 100 µM (inactive)	> 100 µM (inactive)	98.2 µM (inactive)	> 100 µM (inactive)	> 100 µM (inactive)	> 100 µM (inactive)	> 100 µM (inactive)	60.7 µM (inactive)	> 100 µM (inactive)		5 µM (inactive)	> 100 µM (inactive)	> 100 µM (inactive)	> 100 µM (inactive)	> 100 µM (inactive)
OC(c1ccccc1)C(F)(F)c1nc2ccccc2o1 (centres undefined)	> 100 µM (inactive)	14.7 µM (inactive)	> 100 µM (inactive)	61.2 µM (inactive)	67.5 µM (inactive)	> 100 µM (inactive)	> 100 µM (inactive)	27.9 µM (inactive)	> 100 µM (inactive)	> 100 µM (inactive)	89.3 µM (inactive)		> 100 µM (inactive)	> 100 µM (inactive)	> 100 µM (inactive)	55.3 µM (inactive)	> 100 µM (inactive)	> 100 µM (inactive)	> 100 µM (inactive)	
